According to patent US8288390B2, “Benzofuran derivatives” (Takeda Pharmaceutical Company Limited, priority 2009, dated 2012):
Where a name gives a salt, the structure may show the parent alone.

Tests used:
[1] = system: Akt protein; assay: Activity of inhibiting Akt protein degradation in rat mixed glial culture; format: cell-based; conditions: compound 1 μM + rhIGF-1 100 ng/ml, 10 minutes at 37° C.; Akt calibrated with ERK; no addition = 100%, rhIGF-1 only = 0%
Method: The mixed glial cells used in the Test example 1 were seeded on a 6-well plate coated with collagen Type I (manufactured by Asahi Techno Glass Co., Ltd.) to 4×10^6 cells/well. Under the condition of 37° C. and 5% CO2, the cells were cultured for four days in a growth medium (D-MEM/F12 with 10% FBS, comprising PS). After that, the medium was exchanged with a serum-free medium (D-MEM/F12, comprising PS) and the cells were subjected to starvation for 4 hours under the condition of 37° C. and 5% CO2.
Next, rhIGF-1 (R&D Systems, 291-G1-250, final concentration 100 ng/ml) and the compound were added to obtain 1 μM and reacted in a water bath incubator at 37° C. for 10 minutes. Culture supernatant was aspirated off, 150 μL of RIPA (50 mM Tris-HCl pH7.5, 5 mM EDTA, 100 mM NaCl, 30 mM NaF, 5 mM sodium diphosphate, 137 mg/l pepstatin A, 2.5 KIU/l aprotinin, 1% NP-40, 6 mM sodium deoxycholate, 1 μM microcystinLR, 1 μM Z-Leu-Leu-Nva-H(aldehyde), 48 μM leupeptin, 96 μM 4-(2-aminoethyl)benzenesulfonyl fluoride-HCl, 1 mM sodium orthovanadate) was added thereto, and the reaction was terminated. After the termination of the reaction, the cell lysate was recovered by using a cell scraper on ice. Finally, the cell lysate was centrifuged for 30 minutes at 15000 rpm and the supernatant was taken as a cell extract.
Proteins were recovered from the cell extract by using trichloroacetic acid, and quantified according to Lowry method. Standard curve was established with bovine serum albumin. Based on the measured values, each cell extract was diluted with RIPA to prepare it in constant concentration (10 μg/lane). SDS-PAGE was carried out under reducing condition using 10% acrylamide (45 mA, 1.5 hours). After transferring to a PVDF membrane (0.13 A, 1 hour), reaction with an antibody was carried out. As a primary antibody, Akt (Cell Signaling, 9272) and ERK (Santa Cruz, sc-94) were used with the dilution ratio of 1000. As a secondary antibody, HRP-labeled anti-rabbit antibody (NA9340V, manufactured by Amersham) was used with the dilution ratio of 12500. Then, using ImmunoStar reagent (291-55203, manufactured by Wako Pure Chemical Industries, Ltd.), X-ray film detection was carried out. Quantification of the results was carried out by using GS-800 Calibrated Densitometer (manufactured by BioRad), and then the band strength was converted into the numerals by multiplying the absorbance originating from bands of Akt and ERK-1&2 by the area. Akt was calibrated with ERK to give the numeral values.
Inhibitory activity on Akt degradation was expressed as inhibition ratio. Specifically, the case in which neither the compound nor rhIGF-1 was added (no addition) is 100% and the case in which only rhIGF-1 was added is 0%, and then with the value measured from compound+rhIGF-1, the inhibition ratio was obtained. Inhibition ratio(%)=[(compound+rhIGF-1)−(rhIGF-1)]÷[(no addition)−(rhIGF-1)]×100

[2] = system: rat mixed glial culture; assay: Activity of promoting neuronal neogenesis in rat mixed glial culture; format: cell-based; conditions: compound 1 μM + rhIGF-1 100 ng/ml, 3 days culture, absorbance at 450 nm (class III beta-tubulin antibody), control rhIGF-1 only = 100%; for activity at 1 µM: Rattus norvegicus, 72 h, read-out: Increase Ratio of the Absorbance (% control)
Method: From a three-day old SD rat, hippocampus and cerebral cortex were removed. By using a kit of dispersion liquid for neuronal cells (MB-X9901, manufactured by SUMITOMO BAKELITE CO., LTD.), cell suspension was prepared and then seeded on a 96-well plate coated with collagen Type I (4860-010, manufactured by Asahi Techno Glass Co., Ltd.) to 10^5 cells/well. Under the condition of 37° C. and 5% CO2, the cells were cultured for four days in a growth medium (D-MEM/F12 with 10% FBS, comprising PS).
After culturing, the medium was exchanged with a medium for differentiation (D-MEM/F12, comprising PS), added with rhIGF-1 (R&D Systems, 291-G1-250, final concentration of 100 ng/ml) and the compound to 1 μM, followed by further culture for three days. Cultured cells were fixed with 4% paraformaldehyde-PBS (manufactured by MUTO PURE CHEMICALS CO., LTD.) and subjected to membrane penetration using 0.1% Triton X-100 PBS, followed by blocking with Block Ace solution (UK-B80, manufactured by Dainippon Sumitomo Pharma Co., Ltd.). As a primary antibody, Anti-neuron-specific class III beta-tubulin antibody (R&D Systems, MAB1195, clone Tuj-1) was used after 1000× dilution. As a secondary antibody, Anti-Mouse Ig, HRP-Linked F (ab′) 2 Fragment Sheep (Amersham Biosciences, NA9310) was used after 10000× dilution. For washing process, the plate washer (BIO-TEK INSTRUMENTS ELX405) was used. For a chromogenic reaction, the reaction was carried out for 10 minutes using TMB Microwell Peroxidase Substrate System (Kirkegaard & Perry Laboratories, 50-76-00), followed by terminating the reaction according to the addition of 1M phosphoric acid. By using the plate reader (Labsystems Multiskan BICHROMATIC), absorbance at 450 nm was measured.
The absorbance for the case in which no compound is added (i.e., control, rhIGF-1 only) was 100%, and the increase ratio of the absorbance for the compound addition (i.e., compound+rhIGF-1) compared to the control was obtained as % control. Activity of the each compound for promoting neuronal differentiation that is measured according to the above method is summarized in Table 9 and Table 10.

[3] = system: Tg2576 transgenic mice; assay: Amelioration of cognitive function in novel object recognition test; format: in vivo, mouse; conditions: female Tg2576 mice, 10 mg/kg/day orally once a day for 3 weeks; retention 24 hours after training; recovery ratio vs vehicle Tg2576 and wild type
Method: Female Tg2576 transgenic mice and wild-type littermates were used at 8-9 months old. All animals were housed in room maintained at 24±1° C. with a 12-h light/dark cycle. Lights on 7:00 a.m. Food chows (Oriental Yeast Co. Tokyo, Japan) and tap water were provided ad libitum.
The compounds (10 mg/kg/day) or vehicle (0.5% methylcellulose, Wako Pure Chemical Industries Limited, Osaka, Japan) was orally administered to the mice once a day for 3 weeks. After the gavages, the novel object recognition test was performed. The test procedure consisted of three sessions: habituation, training, and retention. In the training and retention sessions, observer was not informed of the group name or animal number (blind method). 4-5 mice were habituated to the box (30×30×30 high cm), with 30 minutes of exploration in the absence of objects (habituation session). During the training session, two objects were placed in the back corner of the box. A mouse was then placed at another corner of the box and the total time spent exploring the two objects was recorded for 5 minutes. During the retention session, animals were placed back into the same box 24 hours after the training session, in which one of the familiar objects used during training was replaced with a novel object. The animals were then allowed to explore freely for 5 minutes and the time spent exploring each object was recorded. Throughout the experiments, the objects were used in a counterbalanced manner in terms of an environmental effect, their physical complexity and emotional neutrality. A preference index (PI), a ratio of the amount of time spent exploring the novel object over the total time spent exploring both objects, was used to measure cognitive function. Furthermore, recovery ratio was calculated by following formula; [Recovery ratio]=[[PI of Tg2576 mice treated by each compound]−[PI of Tg2576 mice treated by vehicle]]/[[PI of wild type mice]−[PI of Tg2576 mice treated by vehicle]].×100(%)

COc1ccc(N2CCN(c3c(C)c(C)c4c(c3C)CC(C)(C)O4)CC2)c(OC)c1 [Example 1, 1-(2,4-Dimethoxyphenyl)-4-(2,2,4,6,7-pentamethyl-2,3-dihydro-1-benzofuran-5-yl)piperazine]
Inhibition of Akt degradation (%) [1]: 73.3%
activity at 1 µM [2]: 407%

COc1ccc(N2CCN(c3c(C)c(C)c4c(c3C)CC(C)(C)O4)CC2)cc1 [Example 17, 1-(4-Methoxyphenyl)-4-(2,2,4,6,7-pentamethyl-2,3-dihydro-1-benzofuran-5-yl)piperazine]
Inhibition of Akt degradation (%) [1]: 73.3%
activity at 1 µM [2]: 216%
Preference index (% recovery) [3]: 70.9 % recovery

COc1ccc(N2CCN(c3c(C)c(C)c4c(c3C)CC(C)O4)CC2)cc1 (centres unmarked) [Example 20, 1-(4-Methoxyphenyl)-4-[2,4,6,7-tetramethyl-2,3-dihydro-1-benzofuran-5-yl]piperazine]
Inhibition of Akt degradation (%) [1]: 73.9%
activity at 1 µM [2]: 187%

COc1ccc(N2CCN(c3c(C)c(C)c4c(c3C)C[C@@H](C)O4)CC2)cc1 [Example 21, 1-(4-Methoxyphenyl)-4-[(2R)-2,4,6,7-tetramethyl-2,3-dihydro-1-benzofuran-5-yl]piperazine]
Inhibition of Akt degradation (%) [1]: 121.3%
activity at 1 µM [2]: 212%

COc1ccc(N2CCN(c3c(C)c(C)c4c(c3C)C[C@H](C)O4)CC2)cc1 [Example 22, 1-(4-Methoxyphenyl)-4-[(2S)-2,4,6,7-tetramethyl-2,3-dihydro-1-benzofuran-5-yl]piperazine]
Inhibition of Akt degradation (%) [1]: 73.9%
activity at 1 µM [2]: 389%
Preference index (% recovery) [3]: 76.9 % recovery

COc1ccc(N2CCN(c3c(C)c4c(c(OC)c3C)OC(C)(C)C4)CC2)cc1 [Example 47, 1-(4-Methoxyphenyl)-4-(7-methoxy-2,2,4,6-tetramethyl-2,3-dihydro-1-benzofuran-5-yl)piperazine]
Inhibition of Akt degradation (%) [1]: 55.2%
activity at 1 µM [2]: > 500%
Preference index (% recovery) [3]: 82.2 % recovery

CCOc1ccc(N2CCN(c3c(C)c4c(c(OC)c3C)OC(C)(C)C4)CC2)cc1 [Example 65, 1-(4-Ethoxyphenyl)-4-(7-methoxy-2,2,4,6-tetramethyl-2,3-dihydro-1-benzofuran-5-yl)piperazine]
Inhibition of Akt degradation (%) [1]: 121.0%
activity at 1 µM [2]: > 500%

CC(=O)c1ccc(N2CCN(c3c(C)c(C)c4c(c3C)CC(C)(C)O4)CC2)cc1 [Example 95, 1-{4-[4-(2,2,4,6,7-Pentamethyl-2,3-dihydro-1-benzofuran-5-yl)piperazin-1-yl]phenyl}ethanone]
activity at 1 µM [2]: 405%

COc1ccc(N2CCN(c3c(C)c(C)c4c(c3C)CC(C)(CO)O4)CC2)cc1 (centres unmarked) [Example 97, {5-[4-(4-Methoxyphenyl)piperazin-1-yl]-2,4,6,7-tetramethyl-2,3-dihydro-1-benzofuran-2-yl}methanol]
Increase Ratio of the Absorbance (% control) [2]: 439 % control

COCC1(C)Cc2c(C)c(N3CCN(c4ccc(OC)cc4)CC3)c(C)c(C)c2O1 (centres unmarked) [Example 101, 1-[2-(Methoxymethyl)-2,4,6,7-tetramethyl-2,3-dihydro-1-benzofuran-5-yl]-4-(4-methoxyphenyl)piperazine hydrochloric acid salt]
activity at 1 µM [2]: > 500%

COc1ccc(N2CCN(c3c(C)c(C)c4c(c3C)CC(C)(CN(C)C)O4)CC2)cc1 (centres unmarked) [Example 102, 1-{5-[4-(4-Methoxyphenyl)piperazin-1-yl]-2,4,6,7-tetramethyl-2,3-dihydro-1-benzofuran-2-yl}-N,N-dimethylmethaneamine]
activity at 1 µM [2]: 347%

COc1ccc(N2CCN(c3c(C)c(C)c4c(c3C)CC(C)(CN)O4)CC2)cc1 (centres unmarked) [Example 108, 1-{5-[4-(4-Methoxyphenyl)piperazin-1-yl]-2,4,6,7-tetramethyl-2,3-dihydro-1-benzofuran-2-yl}methaneamine]
activity at 1 µM [2]: 282%

COc1ccc(N2CCN(c3c(C)c(C)c4c(c3C)CC(C)(CN3CCCC3)O4)CC2)cc1 (centres unmarked) [Example 116, 1-(4-Methoxyphenyl)-4-[2,4,6,7-tetramethyl-2-(pyrrolidin-1-ylmethyl)-2,3-dihydro-1-benzofuran-5-yl]piperazine]
activity at 1 µM [2]: 276%

Cc1nn(C)c(C)c1N1CCN(c2c(C)c(C)c3c(c2C)CC(C)(C)O3)CC1 [Example 117, 1-(2,2,4,6,7-Pentamethyl-2,3-dihydro-1-benzofuran-5-yl)-4-(1,3,5-trimethyl-1H-pyrazole-4-yl)piperazine]
activity at 1 µM [2]: 100%

COc1ccc(N2CCN(c3c(C)c(C)c4c(c3C)CC(C)(CN3CCC(O)CC3)O4)CC2)cc1 (centres unmarked) [Example 133, 1-({5-[4-(4-methoxyphenyl)piperazin-1-yl]-2,4,6,7-tetramethyl-2,3-dihydro-1-benzofuran-2-yl}methyl)piperidine-4-ol]
activity at 1 µM [2]: > 500%

COc1ccc(N2CCN(c3c(C)c(C)c4c(c3C)CC(C)(CNC(C)=O)O4)CC2)cc1 (centres unmarked) [Example 137, N-({5-[4-(4-methoxyphenyl)piperazin-1-yl]-2,4,6,7-tetramethyl-2,3-dihydro-1-benzofuran-2-yl}methyl)acetamide]
activity at 1 µM [2]: > 500%
